Experimental data: patent US6846492B2, “Use of phenylethylamine derivatives for the antimicrobial treatment of surfaces” (Ciba Specialty Chemicals Corporation, priority 2000, dated 2005)

Tested on: Pseudomonas aeruginosa CIP A-22 (= PA)
Experiment: MIC determination in microtiter plates, Pseudomonas aeruginosa
Assay type: cell-based
Conditions: Tables 2a/2b, 48 hours at 37° C., ≦20% growth, optical density 620 nm, some approximate values
Method: (§1) Determination of the Minimum Inhibitory Concentration (MIC Value) in Microtiter Plates
(§2) Casein/soybean flour peptone bouillon for the preparation of pre-cultures of the test bacteria and yeast.
(§3) Mycological slant agar for the pre-culture of moulds
(§4) The test substances are pre-dissolved in dimethyl sulfoxide (DMSO) and tested in a dilution series of 1:2.
(§5) Bacteria and yeast are cultured overnight in CASO bouillon, the mould is cultured overnight on mycological slant agar, and washed off with 10 ml of 0.85% sodium chloride solution (+0.1% TritonX-100).
(§6) All the test organisms are adjusted to an organism count of 1−5×10^6 CFU/ml using 0.85% sodium chloride solution.
(§7) The test substances are pre-pipetted into microtiter plates in an amount of 8 μl per well.
(§8) Pre-diluted organism suspensions are diluted 1:100 in CASO bouillon (bacteria and yeast) or Sabouraud 2% glucose bouillon (mould) and are added in an amount of 192 μl per well to the test substances.
(§9) The test batches are incubated for 48 hours at 37° C. (bacteria and yeast) or for 5 days at 28° C. (mould).
(§10) After incubation, the growth is evaluated by reference to the turbidity of the test batches (optical density) at 620 nm in a microplate reader.
(§11) One microtiter plate is used for each test organism and substance concentration. All the substances are tested in duplicate.

SMILES | MIC [ppm] PA
COC(=O)c1ccc(COc2ccc(CCN)cc2OCc2ccc(C(=O)OC)cc2)cc1 [Compound 14] | 120 ppm
N#Cc1cccc(COc2ccc(CCN)cc2OCc2cccc(C#N)c2)c1 [Compound 12] | >120 ppm
COC(=O)COc1cc(CCN)cc(OCC(=O)OC)c1OCC(=O)OC [Compound 72] | >120 ppm
CCCOC(=O)COc1cc(CCN)cc(OCC(=O)OCCC)c1OCC(=O)OCCC [Compound 74] | >120 ppm
CCOC(=O)CCCCOc1cc(CCN)cc(OCCCCC(=O)OCC)c1OCCCCC(=O)OCC [Compound 79] | >120 ppm
CCOC(=O)COc1cc(CCN)cc(OCC(=O)OCC)c1OCC(=O)OCC [Compound 73] | >120 ppm
CCCCCCCCCCOc1ccc(CCN)cc1OCCCCCCCCCC [Compound 40] | >120 ppm
NCCc1cc(OCC(=O)OCc2ccccc2)c(OCC(=O)OCc2ccccc2)c(OCC(=O)OCc2ccccc2)c1 [Compound 77] | >120 ppm
NCCc1ccc(OCc2cccc(F)c2)c(OCc2cccc(F)c2)c1 [Compound 16] | 120 ppm
C=CCOc1ccc(CCN)cc1OCC=C [Compound 42] | >120 ppm
C=CCCOc1ccc(CCN)cc1OCCC=C [Compound 43] | >120 ppm
Cc1ccc(COc2ccc(CCN)cc2OCc2ccc(C)cc2)cc1 [Compound 7] | 120 ppm
CCOC(=O)CCCOc1cc(CCN)cc(OCCCC(=O)OCC)c1OCCCC(=O)OCC [Compound 78] | >120 ppm
N#Cc1ccccc1COc1ccc(CCN)cc1OCc1ccccc1C#N [Compound 11] | >120 ppm
CCC(C)Oc1cc(CCN)cc(OC(C)CC)c1OC(C)CC (centres unmarked) [Compound 83] | >120 ppm
CCCCOc1cc(CCN)cc(OCCCC)c1OCCCC [Compound 81] | 120 ppm

Tested on: Staphylococcus hominis DMS 20328 (= SH)
Experiment: MIC determination in microtiter plates, Staphylococcus hominis
Assay type: cell-based
Conditions: Tables 2a/2b, 48 hours at 37° C., ≦20% growth, optical density 620 nm, tested at 120, 60, 30, 15, 7.5 and 3.5 ppm, some approximate
Method: as §1, §2, §3, §4, §5, §6, §7, §8, §9, §10, §11

SMILES | MIC [ppm] SH
COC(=O)c1ccc(COc2ccc(CCN)cc2OCc2ccc(C(=O)OC)cc2)cc1 [Compound 14] | 7.5 ppm
N#Cc1cccc(COc2ccc(CCN)cc2OCc2cccc(C#N)c2)c1 [Compound 12] | 60 ppm
COC(=O)COc1cc(CCN)cc(OCC(=O)OC)c1OCC(=O)OC [Compound 72] | >120 ppm
CCCOC(=O)COc1cc(CCN)cc(OCC(=O)OCCC)c1OCC(=O)OCCC [Compound 74] | >120 ppm
CCOC(=O)CCCCOc1cc(CCN)cc(OCCCCC(=O)OCC)c1OCCCCC(=O)OCC [Compound 79] | >120 ppm
CCOC(=O)COc1cc(CCN)cc(OCC(=O)OCC)c1OCC(=O)OCC [Compound 73] | >120 ppm
CCCCCCCCCCOc1ccc(CCN)cc1OCCCCCCCCCC [Compound 40] | >120 ppm
NCCc1cc(OCC(=O)OCc2ccccc2)c(OCC(=O)OCc2ccccc2)c(OCC(=O)OCc2ccccc2)c1 [Compound 77] | 120 ppm
NCCc1ccc(OCc2cccc(F)c2)c(OCc2cccc(F)c2)c1 [Compound 16] | 7.5 ppm
C=CCOc1ccc(CCN)cc1OCC=C [Compound 42] | >120 ppm
C=CCCOc1ccc(CCN)cc1OCCC=C [Compound 43] | >120 ppm
Cc1ccc(COc2ccc(CCN)cc2OCc2ccc(C)cc2)cc1 [Compound 7] | 3.75 ppm
CCOC(=O)CCCOc1cc(CCN)cc(OCCCC(=O)OCC)c1OCCCC(=O)OCC [Compound 78] | >120 ppm
N#Cc1ccccc1COc1ccc(CCN)cc1OCc1ccccc1C#N [Compound 11] | 120 ppm
CCC(C)Oc1cc(CCN)cc(OC(C)CC)c1OC(C)CC (centres unmarked) [Compound 83] | >120 ppm
CCCCOc1cc(CCN)cc(OCCCC)c1OCCCC [Compound 81] | 15 ppm

Tested on: Escherichia coli NCTC 8196 (= EC)
Experiment: MIC determination in microtiter plates, Escherichia coli
Assay type: cell-based
Conditions: Tables 2a/2b, 48 hours at 37° C., ≦20% growth, optical density 620 nm, some approximate values
Method: as §1, §2, §3, §4, §5, §6, §7, §8, §9, §10, §11

SMILES | MIC [ppm] EC
COC(=O)c1ccc(COc2ccc(CCN)cc2OCc2ccc(C(=O)OC)cc2)cc1 [Compound 14] | 30 ppm
N#Cc1cccc(COc2ccc(CCN)cc2OCc2cccc(C#N)c2)c1 [Compound 12] | 120 ppm
COC(=O)COc1cc(CCN)cc(OCC(=O)OC)c1OCC(=O)OC [Compound 72] | >120 ppm
CCCOC(=O)COc1cc(CCN)cc(OCC(=O)OCCC)c1OCC(=O)OCCC [Compound 74] | >120 ppm
CCOC(=O)CCCCOc1cc(CCN)cc(OCCCCC(=O)OCC)c1OCCCCC(=O)OCC [Compound 79] | >120 ppm
CCOC(=O)COc1cc(CCN)cc(OCC(=O)OCC)c1OCC(=O)OCC [Compound 73] | >120 ppm
CCCCCCCCCCOc1ccc(CCN)cc1OCCCCCCCCCC [Compound 40] | >120 ppm
NCCc1cc(OCC(=O)OCc2ccccc2)c(OCC(=O)OCc2ccccc2)c(OCC(=O)OCc2ccccc2)c1 [Compound 77] | >120 ppm
NCCc1ccc(OCc2cccc(F)c2)c(OCc2cccc(F)c2)c1 [Compound 16] | 7.5 ppm
C=CCOc1ccc(CCN)cc1OCC=C [Compound 42] | >120 ppm
C=CCCOc1ccc(CCN)cc1OCCC=C [Compound 43] | >120 ppm
Cc1ccc(COc2ccc(CCN)cc2OCc2ccc(C)cc2)cc1 [Compound 7] | 7.5 ppm
CCOC(=O)CCCOc1cc(CCN)cc(OCCCC(=O)OCC)c1OCCCC(=O)OCC [Compound 78] | >120 ppm
N#Cc1ccccc1COc1ccc(CCN)cc1OCc1ccccc1C#N [Compound 11] | >120 ppm
CCC(C)Oc1cc(CCN)cc(OC(C)CC)c1OC(C)CC (centres unmarked) [Compound 83] | 30 ppm
CCCCOc1cc(CCN)cc(OCCCC)c1OCCCC [Compound 81] | 7,5 ppm

Tested on: Aspergillus niger ATCC 6275 (= AN)
Experiment: MIC determination in microtiter plates, Aspergillus niger
Assay type: cell-based
Conditions: Tables 2a/2b, 5 days at 28° C., ≦20% growth, optical density 620 nm, some approximate values
Method: as §1, §2, §3, §4, §5, §6, §7, §8, §9, §10, §11

SMILES | MIC [ppm] AN
COC(=O)c1ccc(COc2ccc(CCN)cc2OCc2ccc(C(=O)OC)cc2)cc1 [Compound 14] | >120 ppm
N#Cc1cccc(COc2ccc(CCN)cc2OCc2cccc(C#N)c2)c1 [Compound 12] | 30 ppm
COC(=O)COc1cc(CCN)cc(OCC(=O)OC)c1OCC(=O)OC [Compound 72] | >120 ppm
CCCOC(=O)COc1cc(CCN)cc(OCC(=O)OCCC)c1OCC(=O)OCCC [Compound 74] | >120 ppm
CCOC(=O)CCCCOc1cc(CCN)cc(OCCCCC(=O)OCC)c1OCCCCC(=O)OCC [Compound 79] | 120 ppm
CCOC(=O)COc1cc(CCN)cc(OCC(=O)OCC)c1OCC(=O)OCC [Compound 73] | >120 ppm
CCCCCCCCCCOc1ccc(CCN)cc1OCCCCCCCCCC [Compound 40] | >120 ppm
NCCc1cc(OCC(=O)OCc2ccccc2)c(OCC(=O)OCc2ccccc2)c(OCC(=O)OCc2ccccc2)c1 [Compound 77] | >120 ppm
NCCc1ccc(OCc2cccc(F)c2)c(OCc2cccc(F)c2)c1 [Compound 16] | >120 ppm
C=CCOc1ccc(CCN)cc1OCC=C [Compound 42] | >120 ppm
C=CCCOc1ccc(CCN)cc1OCCC=C [Compound 43] | >120 ppm
Cc1ccc(COc2ccc(CCN)cc2OCc2ccc(C)cc2)cc1 [Compound 7] | >120 ppm
CCOC(=O)CCCOc1cc(CCN)cc(OCCCC(=O)OCC)c1OCCCC(=O)OCC [Compound 78] | >120 ppm
N#Cc1ccccc1COc1ccc(CCN)cc1OCc1ccccc1C#N [Compound 11] | >120 ppm
CCC(C)Oc1cc(CCN)cc(OC(C)CC)c1OC(C)CC (centres unmarked) [Compound 83] | >120 ppm
CCCCOc1cc(CCN)cc(OCCCC)c1OCCCC [Compound 81] | >120 ppm

Tested on: Candida albicans ATCC 10231 (= CA)
Experiment: MIC determination in microtiter plates, Candida albicans
Assay type: cell-based
Conditions: Tables 2a/2b, 48 hours at 37° C., ≦20% growth, optical density 620 nm, some approximate values
Method: as §1, §2, §3, §4, §5, §6, §7, §8, §9, §10, §11

SMILES | MIC [ppm] CA
COC(=O)c1ccc(COc2ccc(CCN)cc2OCc2ccc(C(=O)OC)cc2)cc1 [Compound 14] | 30 ppm
N#Cc1cccc(COc2ccc(CCN)cc2OCc2cccc(C#N)c2)c1 [Compound 12] | >120 ppm
COC(=O)COc1cc(CCN)cc(OCC(=O)OC)c1OCC(=O)OC [Compound 72] | >120 ppm
CCCOC(=O)COc1cc(CCN)cc(OCC(=O)OCCC)c1OCC(=O)OCCC [Compound 74] | >120 ppm
CCOC(=O)CCCCOc1cc(CCN)cc(OCCCCC(=O)OCC)c1OCCCCC(=O)OCC [Compound 79] | >120 ppm
CCOC(=O)COc1cc(CCN)cc(OCC(=O)OCC)c1OCC(=O)OCC [Compound 73] | >120 ppm
CCCCCCCCCCOc1ccc(CCN)cc1OCCCCCCCCCC [Compound 40] | >120 ppm
NCCc1cc(OCC(=O)OCc2ccccc2)c(OCC(=O)OCc2ccccc2)c(OCC(=O)OCc2ccccc2)c1 [Compound 77] | >120 ppm
NCCc1ccc(OCc2cccc(F)c2)c(OCc2cccc(F)c2)c1 [Compound 16] | 7.5 ppm
C=CCOc1ccc(CCN)cc1OCC=C [Compound 42] | >120 ppm
C=CCCOc1ccc(CCN)cc1OCCC=C [Compound 43] | >120 ppm
Cc1ccc(COc2ccc(CCN)cc2OCc2ccc(C)cc2)cc1 [Compound 7] | 3.75 ppm
CCOC(=O)CCCOc1cc(CCN)cc(OCCCC(=O)OCC)c1OCCCC(=O)OCC [Compound 78] | >120 ppm
N#Cc1ccccc1COc1ccc(CCN)cc1OCc1ccccc1C#N [Compound 11] | >120 ppm
CCC(C)Oc1cc(CCN)cc(OC(C)CC)c1OC(C)CC (centres unmarked) [Compound 83] | 120 ppm
CCCCOc1cc(CCN)cc(OCCCC)c1OCCCC [Compound 81] | 30 ppm
